Data reported in patent US20120130150A1, “APPARATUS AND METHOD OF TREATMENT UTILIZING A VARYING ELECTROMAGNETIC ENERGIZATION PROFILE” (International Scientific Pty Ltd., priority 2009, published 2012).
Where a name gives a salt, the structure may show the parent alone. Each block holds one molecule with its values, some of them ahead of it.

Experiments:
Format in all cases: in vitro ADME
[1] = Franz-type diffusion of 5-aminolevulinic acid through human epidermis; conditions: at 4 h; 2% w/v solution in PBS pH 7.4; with Dermaportation only (0-4 h)
Method: Overview: ALA solution was applied to the surface of human epidermis for a contact period of up to 4 h. Dermaportation applied continuously from 0 to 4 h was compared to passive diffusion. ALA penetrating the epidermis would diffuse into a receptor fluid of phosphate buffered saline (pH 7.4: PBS). The receptor fluid was analysed for ALA content by high performance liquid chromatography (HPLC).
In vitro epidermal penetration: Human skin was obtained following abdominoplasty surgery under existing approval from the Human Research Ethics Committee of Curtin University. Skin from a donor was used in this study. The epidermis was heat separated from the dermis using standard procedures (Kligman and Christophers 1963). The epidermis was mounted in Franz-type diffusion cells with the stratum corneum facing the donor compartment. Skin integrity was determined by conductance measurement.
The receptor compartment was filled with phosphate buffered saline pH 7.4, stirred continuously and maintained at 37° C. throughout the experiment. ALA solution (2% w/v of ALA in phosphate buffered saline pH 7.4) was applied to the donor side of the epidermis. Dermaportation (cycle 2) was applied from time 0 to 4 h. […] The content of ALA in receptor fluid samples was analysed by HPLC with ultraviolet detection using a validated assay procedure. […]

[2] = Franz-type diffusion of Voltaren Emulgel diclofenac through human epidermis, Dermaportation vs passive; conditions: for flux (skin penetration): PBS receptor, 37° C.; for cumulative amount penetrated: at 8 h
Method: Human epidermis was mounted in vertical Franz type diffusion cells (stratum corneum facing up), according to the method of Kligman and Christophers (1963). Voltaren Emulgel® (1 g containing 1.16% diclofenac diethylammonium salt; Novartis) was applied to the donor compartment of diffusion cells, with PBS in the receptor compartment (3.0 mL; stirred continuously; 37° C.). Dermaportation coils were placed around the exterior of 4 cells, with 4 additional cells without coils (passive control). Dermaportation energy was applied from time 30-60 min. Samples of the receptor solution were removed and replaced with fresh buffer over an 8 h period. All samples were analysed for diclofenac content by HPLC with UV detection by a validated method. The cumulative amount of diclofenac in receptor versus time was plotted and flux values calculated from the slopes per group. Statistical analyses used a t-test on the delta scores from the zero time point to the time point in question.

[3] = Franz-type diffusion of hydrocortisone through human epidermis, Dermaportation vs passive; conditions: for flux (skin penetration): saturated solution in 20:80 ethanol:PBS pH 7.4; for cumulative amount penetrated: at 30 min
Method: (§1) Human skin was obtained following abdominoplasty surgery under existing approval from the Human Research Ethics Committee of Curtin University.
(§2) The epidermis was heat separated from the dermis using standard procedures (Kligman and Christophers 1963). The epidermis was mounted in Franz-type diffusion cells with the stratum corneum facing the donor compartment. Skin integrity was determined by conductance measurement. The receptor compartment was filled with 20:80 ethanol:phosphate buffered saline pH 7.4, stirred continuously and maintained at 37° C. throughout the experiment. Hydrocortisone solution (1 mL of saturated solution in 20:80 ethanol:phosphate buffered saline pH 7.4; solubility approx 1 mg/mL) was applied to the donor side of the epidermis.
(§3) Dermaportation was applied from time 0 to 4 h. Samples were removed from the receptor fluid at time points up to 4 h. At each time point the receptor fluid volume was replaced with fresh receptor solution preheated to 37° C. Four Dermaportation cells and three passive cells (no Dermaportation) were conducted using skin from the abdominal region of a donor. The content of hydrocortisone in receptor fluid samples was analysed by HPLC with ultraviolet detection using a validated assay procedure.
The cumulative amount of hydrocortisone in receptor versus time was plotted and flux values calculated from the slopes per group.

[4] = Franz-type diffusion of naltrexone through human epidermis, Dermaportation vs passive; conditions: for flux0-2h (skin penetration): 0.5% w/v in PBS pH 7.4
Method: as §1
as §2, with “phosphate” for “20:80 ethanol:phosphate”, “Naltrexone (0.5% w/v)” for “Hydrocortisone solution (1 mL of saturated solution”, “(pH 7.4)” for “pH 7.4; solubility approx 1 mg/mL)”
as §3, with “up to 8 h. At” for “up to 4 h. At”, “cells and 4 passive cells” for “cells and three passive cells”, “content of naltrexone in receptor” for “content of hydrocortisone in receptor”
The cumulative amount of naltrexone in receptor versus time was plotted and flux values calculated from the slopes per group.

applied dose penetrated to the receptor [1]: approximately 40%
Compound: NCC(=O)CCC(=O)O [ALA, 5-aminolevulinic acid]

flux (skin penetration) ([2]; Dermaportation applied 30-60 min, Voltaren Emulgel 1 g (1.16% diclofenac diethylammonium salt)): 2.97 µg/h | cumulative amount penetrated ([2]; Dermaportation applied 30-60 min): 14.25 µg | cumulative amount penetrated ([2]; passive diffusion): 7.59 µg | flux (skin penetration) ([2]; passive administration, Voltaren Emulgel 1 g): 1.58 µg/h
Compound: O=C(O)Cc1ccccc1Nc1c(Cl)cccc1Cl [diclofenac, diclofenac diethylammonium salt]
diffusion level versus zero time point (t-test delta score) ([2]; passive diffusion, any time point up to 8 h): did not reach diffusion levels different from 0

flux (skin penetration) ([3]; Dermaportation 0-4 h): 2.44 μg/cm^2/h | cumulative amount penetrated ([3]; Dermaportation): 93.22 µg | cumulative amount penetrated ([3]; passive diffusion): 2.51 µg | flux (skin penetration) ([3]; passive administration): 0.08 μg/cm^2/h
Compound: C[C@]12CCC(=O)C=C1CC[C@@H]1[C@@H]2[C@@H](O)C[C@@]2(C)[C@H]1CC[C@]2(O)C(=O)CO [hydrocortisone, Hydrocortisone]

Compound: O=C1CC[C@@]2(O)[C@H]3Cc4ccc(O)c5c4[C@@]2(CCN3CC2CC2)[C@H]1O5 [naltrexone, Naltrexone]
flux0-2h (skin penetration) ([4]; Dermaportation 0-4 h): 152.6 μg/cm^2/h | diffusion with Dermaportation compared with passive administration ([4]; Dermaportation for 240 min, Time by Treat interaction p<0.05): diffused faster and in more quantity | flux0-2h (skin penetration) ([4]; passive administration): 1.6 μg/cm^2/h
